In ChEMBL document CHEMBL2163320, “Benzofuranones as potential antinociceptive agents: structure-activity relationships” (2012):

What was measured:
Mus musculus [1] = assay: Antinociceptive activity in Swiss mouse assessed as inhibition of acetic acid-induced abdominal constriction at 10 mg/kg administered 30 to 60 mins prior to acetic acid challenge measured over 20 mins by writhing test; type: functional, Abdomen
Mus musculus [2] = assay: Antinociceptive activity in Swiss mouse assessed as inhibition of acetic acid-induced abdominal constriction at 30 mg/kg administered 30 to 60 mins prior to acetic acid challenge measured over 20 mins by writhing test; type: functional, Abdomen
Mus musculus [3] = assay: Antinociceptive activity in Swiss mouse assessed as inhibition of acetic acid-induced abdominal constriction administered 30 to 60 mins prior to acetic acid challenge measured over 20 mins by writhing test; type: functional; conditions: Abdomen; for ED50: read-out: ID50 (the source's name)

SMILES	Imax (Mus musculus [1]) [%]	Imax (Mus musculus [2]) [%]	inhibition (Mus musculus [3])	ED50 (Mus musculus [3]) [µmol/kg]
COc1ccc(C(=O)CC2OC(=O)c3ccccc32)cc1OC (configuration not stated)	49.4			
O=C(CC1OC(=O)c2ccccc21)c1ccc(Cl)cc1 (configuration not stated)	73.5	97.7	Dose-dependent effect	33.7
O=C(CC1OC(=O)c2ccccc21)c1ccc(Cl)c(Cl)c1 (configuration not stated)		90.7		34.6
